Data on 18 compounds can be found in patent US9475775B2, “Benzazepine dicarboxamide compounds” (Hoffmann-La Roche Inc., priority 2015, dated 2016).

One assay addresses human TLR8 (Homo sapiens (Human), UniProt Q9NR97). The assay is described as follows: HEK-Blue human TLR8 cells, NF-κB SEAP reporter assay. The format is cell-based. Particulars: stimulation for 20 hours. An excerpt: (§1) For TLR8 and TLR7 activity testing, HEK-Blue human TLR8 or TLR7 cells (Invivogen, San Diego, Calif., USA) are used, respectively. These cells are designed for studying the stimulation of human TLR8 or TLR7 by monitoring the activation of NF-κB. A SEAP (secreted embryonic alkaline phosphatase) reporter gene is placed under the control of the IFN-b minimal promoter fused to five NF-κB and AP-1-binding sites. Therefore the reporter expression is regulated by the NF-κB promoter upon stimulation of human TLR8 or TLR7 for 20 hours. The cell culture supernatant SEAP reporter activity was determined using Quanti Blue kit (Invivogen, San Diego, Ca, USA) at a wavelength of 640 nm, a detection medium that turns purple/blue in the presence of alkaline phosphatase. EC50 values were determined using Activity Base analysis (ID Business Solution, Limited).

The target of another assay is human TLR7 (Homo sapiens (Human), UniProt Q9NYK1). The assay is described as follows: HEK-Blue human TLR7 cells, NF-κB SEAP reporter assay. The format is cell-based. Particulars: stimulation for 20 hours.
Description: as §1
(In general: In a reporter assay the amount or activity of a reporter protein is the signal.)

Sequence of human TLR8 (Q9NR97 27-1041): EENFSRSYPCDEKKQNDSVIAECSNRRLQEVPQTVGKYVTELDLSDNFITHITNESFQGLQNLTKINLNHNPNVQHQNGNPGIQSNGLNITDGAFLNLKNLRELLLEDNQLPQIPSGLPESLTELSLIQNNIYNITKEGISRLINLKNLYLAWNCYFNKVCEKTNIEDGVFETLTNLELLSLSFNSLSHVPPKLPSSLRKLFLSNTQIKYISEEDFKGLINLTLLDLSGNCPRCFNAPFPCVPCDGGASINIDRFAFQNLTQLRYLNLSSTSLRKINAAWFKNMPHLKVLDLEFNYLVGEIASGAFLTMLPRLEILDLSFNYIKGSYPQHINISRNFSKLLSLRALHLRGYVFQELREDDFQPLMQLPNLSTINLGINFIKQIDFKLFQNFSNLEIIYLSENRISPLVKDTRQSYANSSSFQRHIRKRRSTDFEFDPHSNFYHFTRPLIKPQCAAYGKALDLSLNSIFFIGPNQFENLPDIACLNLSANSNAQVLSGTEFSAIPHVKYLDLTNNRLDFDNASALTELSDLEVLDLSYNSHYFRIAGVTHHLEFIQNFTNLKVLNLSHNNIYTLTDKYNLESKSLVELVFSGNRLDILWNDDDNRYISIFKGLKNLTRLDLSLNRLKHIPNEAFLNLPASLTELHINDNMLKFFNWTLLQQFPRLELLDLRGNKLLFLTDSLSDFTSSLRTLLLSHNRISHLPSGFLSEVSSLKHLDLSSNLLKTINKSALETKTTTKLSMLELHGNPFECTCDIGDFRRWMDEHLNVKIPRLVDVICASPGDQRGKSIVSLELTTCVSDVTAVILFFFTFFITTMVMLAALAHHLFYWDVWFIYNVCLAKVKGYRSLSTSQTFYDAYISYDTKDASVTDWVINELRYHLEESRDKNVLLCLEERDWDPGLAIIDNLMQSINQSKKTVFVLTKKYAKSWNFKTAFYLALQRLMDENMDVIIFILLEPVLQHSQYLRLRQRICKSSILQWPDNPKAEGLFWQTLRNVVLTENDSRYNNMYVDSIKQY
Sequence of human TLR7 (Q9NYK1 27-1049): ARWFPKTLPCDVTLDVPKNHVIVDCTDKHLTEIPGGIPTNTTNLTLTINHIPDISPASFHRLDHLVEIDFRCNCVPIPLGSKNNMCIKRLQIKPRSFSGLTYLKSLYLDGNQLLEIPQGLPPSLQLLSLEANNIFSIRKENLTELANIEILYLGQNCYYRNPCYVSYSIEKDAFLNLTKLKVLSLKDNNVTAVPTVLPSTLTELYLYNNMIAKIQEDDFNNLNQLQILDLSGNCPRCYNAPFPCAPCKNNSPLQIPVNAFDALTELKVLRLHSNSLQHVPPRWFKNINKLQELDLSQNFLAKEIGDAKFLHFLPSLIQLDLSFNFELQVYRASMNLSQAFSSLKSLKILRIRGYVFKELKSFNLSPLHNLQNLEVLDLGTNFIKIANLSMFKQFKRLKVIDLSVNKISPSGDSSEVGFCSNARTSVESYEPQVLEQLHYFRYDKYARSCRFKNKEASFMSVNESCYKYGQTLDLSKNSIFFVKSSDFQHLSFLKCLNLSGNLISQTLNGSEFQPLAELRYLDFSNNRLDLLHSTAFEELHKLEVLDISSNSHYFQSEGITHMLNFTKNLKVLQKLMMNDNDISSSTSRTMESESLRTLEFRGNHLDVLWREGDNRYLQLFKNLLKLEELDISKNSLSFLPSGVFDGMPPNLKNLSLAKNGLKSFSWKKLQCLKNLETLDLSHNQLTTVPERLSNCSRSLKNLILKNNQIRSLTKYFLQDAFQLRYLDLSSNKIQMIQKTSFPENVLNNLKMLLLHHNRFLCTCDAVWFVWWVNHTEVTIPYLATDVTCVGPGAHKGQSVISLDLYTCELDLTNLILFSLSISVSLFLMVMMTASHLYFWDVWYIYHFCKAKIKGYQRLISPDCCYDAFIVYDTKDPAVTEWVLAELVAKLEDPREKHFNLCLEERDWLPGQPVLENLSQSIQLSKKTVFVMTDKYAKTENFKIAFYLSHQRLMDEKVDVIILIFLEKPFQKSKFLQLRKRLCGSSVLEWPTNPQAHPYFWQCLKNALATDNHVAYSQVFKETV

For `CCCN(CCC)C(=O)C1=Cc2ccc(C(=O)Nc3cccnc3C)cc2N=C(N)C1` [Example 21, 2-Amino-N8-(2-methyl-3-pyridyl)-N4,N4-dipropyl-3H-1-benzazepine-4,8-dicarboxamide], the values for the 50% effective concentration (EC50) at human TLR8 and on human TLR7 were 21 nM and over 100000 nM, respectively.
For `CCCN(CCC)C(=O)C1=Cc2ccc(C(=O)Nc3cccc(S(C)(=O)=O)c3)cc2N=C(N)C1` [Example 8, 2-Amino-N8-(3-methylsulfonylphenyl)-N4,N4-dipropyl-3H-1-benzazepine-4,8-dicarboxamide], in that order: 10 nM and 44000 nM.
For `CCCN(CCC)C(=O)C1=Cc2ccc(C(=O)Nc3cncc(CCc4ccc(CN)cc4)c3)cc2N=C(N)C1` [Example 71, 2-Amino-N8-[5-[2-[4-(aminomethyl)phenyl]ethyl]-3-pyridyl]-N4,N4-dipropyl-3H-1-benzazepine-4,8-dicarboxamide], in that order: 29 nM and over 100000 nM.
For `CCCN(CCC)C(=O)C1=Cc2ccc(C(=O)Nc3ccc(C)nc3)cc2N=C(N)C1` [Example 22, 2-Amino-N8-(6-methyl-3-pyridyl)-N4,N4-dipropyl-3H-1-benzazepine-4,8-dicarboxamide], in that order: 3 nM and over 100000 nM.
Regarding `CCCN(CCC)C(=O)C1=Cc2ccc(C(=O)Nc3cncc(OCCN)c3)cc2N=C(N)C1` [Example 66, 2-Amino-N8-[5-(2-aminoethoxy)-3-pyridyl]-N4,N4-dipropyl-3H-1-benzazepine-4,8-dicarboxamide], the EC50 at human TLR8 is 31 nM; at human TLR7, over 100000 nM.
For `CCCN(CCC)C(=O)C1=Cc2ccc(C(=O)Nc3cncc(CCCCCCN)c3)cc2N=C(N)C1` [Example 74, 2-Amino-N8-[5-(6-aminohexyl)-3-pyridyl]-N4,N4-dipropyl-3H-1-benzazepine-4,8-dicarboxamide], in that order: 27 nM and over 100000 nM.
On to `CCCN(CCC)C(=O)C1=Cc2ccc(C(=O)Nc3cccc(OC)c3)cc2N=C(N)C1` [Example 30, 2-Amino-N8-(3-methoxyphenyl)-N4,N4-dipropyl-3H-1-benzazepine-4,8-dicarboxamide], for which the EC50 on human TLR8 was 2 nM; at human TLR7, over 100000 nM.
The like results for `CCCN(CCC)C(=O)C1=Cc2ccc(C(=O)Nc3cccc(CCCN)c3)cc2N=C(N)C1` [Example 59, 2-Amino-N8-[3-(3-aminopropyl)phenyl]-N4,N4-dipropyl-3H-1-benzazepine-4,8-dicarboxamide] were, in that order, 3 nM and over 100000 nM.
For `CCCN(CC1CC1)C(=O)C1=Cc2ccc(C(=O)Nc3cccc(C)c3)cc2N=C(N)C1` [Example 53, 2-Amino-N4-(cyclopropylmethyl)-N8-(m-tolyl)-N4-propyl-3H-1-benzazepine-4,8-dicarboxamide], the EC50 at human TLR8 turned out to be 2 nM; on human TLR7, 20000 nM.
For `CCCN(CCC(F)(F)F)C(=O)C1=Cc2ccc(C(=O)Nc3cccc(C)c3)cc2N=C(N)C1` [Example 51, 2-Amino-N8-(m-tolyl)-N4-propyl-N4-(3,3,3-trifluoropropyl)-3H-1-benzazepine-4,8-dicarboxamide], the values for the EC50 at human TLR8 and on human TLR7 were 2 nM and 22000 nM, respectively.
`CCCN(CCC)C(=O)C1=Cc2ccc(C(=O)Nc3cccc(C)c3)cc2N=C(N)C1` [Example 14, 2-Amino-N8-(m-tolyl)-N4,N4-dipropyl-3H-1-benzazepine-4,8-dicarboxamide]: the EC50 is 1 nM at human TLR8 and over 100000 nM at human TLR7.
Regarding `CCCN(CCC)C(=O)C1=Cc2ccc(C(=O)Nc3cncc(/C=C\CN)c3)cc2N=C(N)C1` [Example 52, 2-Amino-N8-[5-[(Z)-3-aminoprop-1-enyl]-3-pyridyl]-N4,N4-dipropyl-3H-1-benzazepine-4,8-dicarboxamide], the EC50 on human TLR8 is 6 nM; on human TLR7, over 100000 nM.
The like results for `CCCN(CCC)C(=O)C1=Cc2ccc(C(=O)Nc3cccc(C(=O)N4CCCC4)c3)cc2N=C(N)C1` [Example 15, 2-Amino-N4,N4-dipropyl-N8-[3-(pyrrolidine-1-carbonyl)phenyl]-3H-1-benzazepine-4,8-dicarboxamide] were, in that order, 2 nM and over 100000 nM.
Take `CCCN(CCC)C(=O)C1=Cc2ccc(C(=O)Nc3cncc(C(=O)N4CCCC4)c3)cc2N=C(N)C1` [Example 16, 2-Amino-N4,N4-dipropyl-N8-[5-(pyrrolidine-1-carbonyl)-3-pyridyl]-3H-1-benzazepine-4,8-dicarboxamide]: the EC50 is 14 nM at human TLR8 and over 100000 nM at human TLR7.
With `CCCN(CCCOCCOCCN)C(=O)C1=Cc2ccc(C(=O)Nc3cccc(C)c3)cc2N=C(N)C1` [Example 49, 2-amino-N4-[3-[2-(2-aminoethoxy)ethoxy]propyl]-N8-(m-tolyl)-N4-propyl-3H-1-benzazepine-4,8-dicarboxamide], the EC50 on human TLR8 is 31 nM; on human TLR7 it was over 100000 nM.
For `CCCN(CCC)C(=O)C1=Cc2ccc(C(=O)Nc3ccc(OCC)nc3)cc2N=C(N)C1` [Example 35, 2-Amino-N8-(6-ethoxy-3-pyridyl)-N4,N4-dipropyl-3H-1-benzazepine-4,8-dicarboxamide], the results for the EC50 on human TLR8 and at human TLR7 were 1 nM and over 100000 nM, respectively.
The like results for `CCCN(CCC)C(=O)C1=Cc2ccc(C(=O)Nc3cncc(CCCN)c3)cc2N=C(N)C1` [Example 50, 2-Amino-N8-[5-(3-aminopropyl)-3-pyridyl]-N4,N4-dipropyl-3H-1-benzazepine-4,8-dicarboxamide] were, in that order, 10 nM and over 100000 nM.
For the compound `CCCN(CCC)C(=O)C1=Cc2ccc(C(=O)Nc3cncc(CN(C)C)c3)cc2N=C(N)C1` [Example 78, 2-Amino-N8-[5-[(dimethylamino)methyl]-3-pyridyl]-N4,N4-dipropyl-3H-1-benzazepine-4,8-dicarboxamide], the EC50 is 12 nM on human TLR8 and over 100000 nM at human TLR7.

The EC50 is the concentration at which the effect is half-maximal. Lower therefore signals higher potency in that assay.
